One assay concerns ZR-75-1. In words: Cytotoxicity against human ZR-75-1 cells. It is filed as functional, cell-based.
The test system of the next assay is Lu1. In words: Cytotoxicity against human Lu1 cells. It counts as functional. The note with it: read-out: ED50 (the source's name).
A further assay concerns KB. As to the kind of experiment: Cytotoxicity against human KB cells. It counts as functional. The note with it: read-out: ED50 (the source's name).
The nature of assay [1]: Cytotoxicity against human KBVIN cells in presence of vinblastine. The note with it: read-out: ED50 (the source's name). It counts as functional.
The nature of assay [2]: Antimitotic activity in rat ASK cells assessed as astrocyte generation at […] by light microscopy. It is filed as functional. The note with it: read-out: ED50 (the source's name).
Assay [3] in a line: Cytotoxicity against human KBVIN cells in absence of vinblastine. It is filed as functional. To be noted: read-out: ED50 (the source's name).
The subject of another assay is LNCaP. In words: Cytotoxicity against human LNCAP cells. It is filed as functional. To be noted: read-out: ED50 (the source's name).

Values after ≈ are worked out from the molar mass of the structure shown. Active and inactive are the calls of the source. The calls are words filed in the database; no cut-off is given here.

Turning to `CN1CC[C@@]2(C)C3=CC(=O)C(=O)C=C3N(C)[C@@H]12` [RUBRESERINE], the outcome in the assay with ZR-75-1 was Active. Moreover, the EC50 in the assay with Lu1 is greater than 20 µg/mL; with KB, greater than 20 µg/mL; in assay [1], greater than 20 µg/mL; in assay [2] it was greater than 20 µg/mL; in assay [3], 16.8 µg/mL (≈ 72.3 µM); in the assay with LNCaP, 13.1 µg/mL (≈ 56.4 µM).

Take `CCNC1=CC2=N[C@H]3N(C)CC[C@@]3(C)C2=CC1=O`: the result with ZR-75-1 was inactive. The EC50 amounted to 1.5 µg/mL (≈ 6.11 µM) in the assay with Lu1; 0.2 µg/mL (≈ 0.815 µM) in the assay on KB; 0.6 µg/mL in assay [1]; 1.9 µg/mL (≈ 7.74 µM) in assay [2]; 0.8 µg/mL (≈ 3.26 µM) in assay [3]; 0.3 µg/mL (≈ 1.22 µM) in the assay on LNCaP.

Source of the values: ChEMBL document CHEMBL1158310, “Cytotoxic Degradation Product of Physostigmine” (1996).
